From patent publication US12441722B2, “Therapeutic agents and methods of treatment” (University of Florida Research Foundation, Incorporated, priority 2020, dated 2025)

Assays:
MOLT-4 = experiment: Cell viability assay (tetrazolium-based MTS) in MOLT4 cells; conditions: Homo sapiens, MOLT-4, MOLT4 acute lymphoblastic leukemia cells, 48 h incubation
Protocol: Cancer cells from acute lymphoblastic leukemia (MOLT4) were incubated with increasing concentrations of compounds of Examples 1-9 for 48 h. Cell viability was measured by tetrazolium-based MTS assay. 5×10^4 to 1×10^5 suspension cells or 3×10^3 to 5×10^3 adherent cells were seeded and treated in 96-well plates for 48 h. The EC50 values of individual agents were calculated with GraphPad Prism.

MOLT4 cells = experiment: Protein degradation assay in MOLT4 cells (western blot); format: cell-based; conditions: MOLT4 cells incubated with various concentrations; the FIGURE
Protocol: MOLT4 cells and human platelets can be incubated with increasing concentrations of test compounds for 16 h. The cells can be harvested and lysed in RIPA lysis buffer supplemented with protease and phosphatase inhibitor cocktails. An equal amount of protein (20 μg/lane) can be resolved on a pre-cast 4-20% SDS-PAGE gel. Proteins can be subsequently transferred to NOVEX PVDF membranes by electrophoresis. The membranes can be blocked in blocking buffer (5% non-fat dry milk in TBS-T), and can be incubated with primary antibodies (at optimized concentrations) overnight at 4° C. After washing in TBS-T, the membranes can be incubated with an appropriate HRP-conjugated secondary antibody for 1 h at room temperature. After extensive washing, the proteins of interest can be detected with ECL western blotting detection reagents and recorded with autoradiography (Pierce Biotech, Rockford, IL, USA). The primary antibodies for Bcl-xL (Cat #2762), Bcl-2 (Cat #2872), Mcl-1 (Cat #5453) and β-actin (Cat #4970) can be purchased from Cell Signaling technology. The relative band intensity can be measured using ImageJ software and normalized to b-actin. The DC50 (concentration with 50% degradation) can be calculated using GraphPad Prism.

EC50 (MOLT-4): < 10 nM
Structure (SMILES): Cc1c(-c2ccc(N3CCc4cccc(C(=O)Nc5nc6ccccc6s5)c4C3)nc2C(=O)NCCOCCOCCOCCNc2cccc3c2C(=O)N(C2CCC(=O)NC2=O)C3=O)cnn1CC12CC3CC(CC(C3)C1)C2 (centres unmarked) [degrader #8, 2-(5-(1-(adamantan-1-ylmethyl)-5-methyl-1H-pyrazol-4-yl)-6-((2-(2-(2-(2-((2-(2,6-dioxopiperidin-3-yl)-1,3-dioxoisoindolin-4-yl)amino)ethoxy)ethoxy)ethoxy)ethyl)carbamoyl)pyridin-2-yl)-N-(benzo[d]thiazol-2-yl)-1,2,3,4-tetrahydroisoquinoline-8-carboxamide]
protein degradation (western blot) (MOLT4 cells): protein degradation
